In PMC6241247, “Development and Application of an UHPLC-MS/MS Method for Comparative Pharmacokinetic Study of Eight Major Bioactive Components from Yin Chen Hao Tang in Normal and Acute Liver Injured Rats” (Evidence-based Complementary and Alternative Medicine : eCAM, 2018):

Assays:
[1] = Plasma pharmacokinetics after oral administration of YCHT in model (CCl4-induced acute liver injury) rats, UHPLC-MS/MS
Experimental: The quality control (QC) and plasma samples were analyzed by an Agilent 6470 triple quadrupole LC–MS system (Agilent Technologies, Inc., Santa Clara, CA, USA), which consists of an Agilent 1290 Infinity II system connected to a triple quadrupole MS analyzer with an Agilent Jet Stream technologies electrospray ionization (ESI) interface. The Agilent 1290 LC system is equipped with degasser (G7116B), high speed pump (G7120A) and multisampler (G7167B). The samples (2 μL) were injected into the LC system. A MassHunter workstation was applied for LC–MS control and data acquisition.
Chromatographic separation was conducted with a CAPCELL PAK ADME (2.1 mm × 100 mm, 3 μm; Shiseido Co., Ltd., Tokyo, Japan). The mobile phase included 0.1% formic acid (A) and methanol (B), and the flow rate was 0.3 mL/min. Iridoid glycosides and anthraquinones were detected in the isocratic elution, which was kept 80% B for 5.5 min in the negative mode. The others were separated in the positive mode with another gradient program, which was maintained at 45% B for 0.5 min, then increased to 95% B in 2 min, and maintained at 95% B until 4.5 min, and the post time is 2 min.
The optimal parameters for the ESI interface were as follows: nebulizer, 45 psi; dry gas, 10 L/min; dry temp, 350°C; sheath gas, 11 L/min; sheath gas temp, 350°C; capillary voltage, 4000 V (in the positive mode) and 3500 V (in the negative mode); and delta EMV, 200 V. The MS parameters for iridoid glycosides and anthraquinones were improved in the negative mode, and the MS parameters for the other analytes were improved in positive mode.
The animals were randomly divided into the control group (n = 6) and the model group (n = 6): the model rats, i.e., acute liver injury rats, were induced by intraperitoneal injections of CCl4 diluted with olive oil (1:1, v/v) at a dose of 1.5 mL/kg.bw every day for three days, and the rats in the control group were administered with olive oil.
After being thawed at room temperature, 100 μL plasma was put in a 1.5 mL centrifuge tube, and then 100 μL IS solution and 300 μL acetonitrile was added. After the mixture was vortexed for 1 min, it was centrifuged at 12000 rpm for 10 min at 4°C to precipitate the protein. Then the supernatant was transferred to another clean centrifuge tube, and evaporated to dryness under nitrogen stream, the residue was reconstituted in 50 μL methanol-water (1:1, v/v). After centrifuging at 12000 rpm for 10 min at 4°C again, a 2 μL aliquot of supernatant was injected for LC–MS/MS analysis.
The validated method was used for the pharmacokinetic study. Standard diet was withheld over night before oral administration of YCHT, but with free access to water. And YCHT (60 g/kg) was administered to the rats by gastric perfusion, equivalent to 10.09 mg/kg of scoparone, 0.49 mg/kg scopoletin, 17.16 mg/kg of geniposide, 9.86 mg/kg of rhein, 2.66 mg/kg of aloe-emodin, 2.24 mg/kg of chrysophanol, 0.83 mg/kg of emodin, and 0.58 mg/kg of physcion.
A series of blood samples (0.3 mL) were collected from the rats' postorbital venous plexuses at 0 (pre-dose), 5, 10, 15, 30, 45, 60, 90, 120, 240, 480, 600, 720 and 1440 min, and put into heparinized tubes. The heparinized plasma was immediately centrifuged to separate at 3000 g for 10 min and stored at −80°C before experiments. The analytes' concentrations in plasma were determined by LC–MS/MS methods described above.
The plasma concentrations were expressed as arithmetic mean ± standard deviation (SD). And the mean concentration–time curves were calculated and plotted by DAS (version 3.0, Bio Guider Co., Shanghai, China), and the PK parameters consist of elimination half-life (t1/2), area under the plasma concentration-time curve (AUC), and mean residence time (MRT). The maximum plasma concentrations (Cmax) and corresponding peak time (Tmax) were obtained from the observed data directly.

[2] = Plasma pharmacokinetics after oral administration of YCHT in control (normal) rats, UHPLC-MS/MS; format: in vivo, Sprague-Dawley rats; settings: for CL/F / Cmax / MRT last / MRT inf / Tmax / half-life: Sprague-Dawley
Source text: The validated method was used for the pharmacokinetic study.
P<0.05 represented statistical significance.

P-glycoprotein (P-gp) = system: P-glycoprotein (P-gp); parameters: method as in PMID 25776492, PMID 26121397; settings: cited from earlier work
[3] = Fr = (AUCmodel/AUCcontrol)∗100%, oral YCHT 60 g/kg
[4] = Sprague-Dawley, rat, in vivo, po, 60 g/kg
[5] = model (CCl4 liver injured) rats, oral YCHT 60 g/kg, plasma, n = 6
[6] = rat, in vivo, control rats, oral YCHT 60 g/kg, plasma, n = 6, read-out: CLz/F (converted)
[7] = rat, in vivo, control rats, oral YCHT 60 g/kg, plasma, n = 6, read-out: Cmax
[8] = rat, in vivo, control rats, oral YCHT 60 g/kg, plasma, n = 6, read-out: MRT0–t
[9] = rat, in vivo, control rats, oral YCHT 60 g/kg, plasma, n = 6, read-out: MRT0–∞
[10] = rat, in vivo, control rats, oral YCHT 60 g/kg, plasma, n = 6, read-out: Tmax
[11] = rat, in vivo, control rats, oral YCHT 60 g/kg, plasma, n = 6, read-out: t 1/2 (converted)
[12] = control rats, oral YCHT 60 g/kg, plasma, n = 6
[13] = Sprague-Dawley, rat, in vivo, po

## O=C1c2cccc(O)c2C(=O)c2c(O)cc(CO)cc21 [Aloe-emodin]
[1]; [3]
  Fr (relative bioavailability): 281.30%
[1]; [4]
  CL/F: 283 mL/min/kg
  Cmax: 36.7 ± 3.09 ng/mL
  MRT inf: 4.07 ± 0.4 h
  MRT last: 3.68 ± 0.34 h
  Tmax: 0.58 ± 0.3 h
  half-life: 1.98 ± 0.71 h
[1]; [5]
  AUC0–t: 153.62 ± 18.13∗∗ ug/L∗h
  AUC0–∞: 158.71 ± 19.26∗∗ ug/L∗h
[2]; [6]
  CL/F: 737 mL/min/kg
[2]; [7]
  Cmax: 15.2 ± 1.68 ng/mL
[2]; [8]
  MRT last: 3.34 ± 0.12 h
[2]; [9]
  MRT inf: 4.33 ± 0.84 h
[2]; [10]
  Tmax: 0.54 ± 0.19 h
[2]; [11]
  half-life: 2.26 ± 1.15 h
[2]; [12]
  AUC0–t: 54.61 ± 6.50 ug/L∗h
  AUC0–∞: 60.86 ± 6.68 ug/L∗h

## Cc1cc(O)c2c(c1)C(=O)c1cccc(O)c1C2=O [Chrysophanol]
[1]; [13]
  Fr (relative bioavailability): 142.23%
[1]; [4]
  CL/F: 257 mL/min/kg
  Cmax: 37.6 ± 6.51 ng/mL
  MRT inf: 4.2 ± 0.77 h
  MRT last: 3.43 ± 0.4 h
  Tmax: 0.88 ± 0.35 h
  half-life: 3.12 ± 1.74 h
[1]; rat, in vivo, po, 60 g/kg
  AUC0–t: 141.29 ± 27.92∗∗ ug/L∗h
  AUC0–∞: 148.47 ± 25.04∗∗ ug/L∗h
[2]; rat, in vivo, po, 60 g/kg
  CL/F: 363 mL/min/kg
  Cmax: 34.5 ± 4.99 ng/mL
  MRT inf: 3.34 ± 0.21 h
  MRT last: 2.93 ± 0.16 h
  Tmax: 0.63 ± 0.26 h
  half-life: 2 ± 0.23 h
  AUC0–t: 99.34 ± 10.12 ug/L∗h
  AUC0–∞: 103.57 ± 10.09 ug/L∗h

## Cc1cc(O)c2c(c1)C(=O)c1cc(O)cc(O)c1C2=O [Emodin]
[1]; [13]
  Fr (relative bioavailability): 112.01%
[1]; [4]
  CL/F: 1050 mL/min/kg
  Cmax: 3.89 ± 0.89 ng/mL
  MRT inf: 6.64 ± 0.78 h
  MRT last: 4.83 ± 0.25 h
  Tmax: 0.17 ± 0.05 h
  half-life: 3.64 ± 0.79 h
[1]; [5]
  AUC0–t: 11.66 ± 2.70 ug/L∗h
  AUC0–∞: 13.49 ± 2.43 ug/L∗h
P-glycoprotein (P-gp)
  P-gp substrate: not P-gp substrates
[2]; [6]
  CL/F: 1160 mL/min/kg
[2]; [7]
  Cmax: 3.51 ± 0.59 ng/mL
[2]; [8]
  MRT last: 4.94 ± 0.26 h
[2]; [9]
  MRT inf: 6.65 ± 1.99 h
[2]; [10]
  Tmax: 0.2 ± 0.17 h
[2]; [11]
  half-life: 3.33 ± 1.67 h
[2]; [12]
  AUC0–t: 10.41 ± 0.83 ug/L∗h
  AUC0–∞: 12.06 ± 1.53 ug/L∗h

## COC(=O)C1=CO[C@@H](O[C@@H]2O[C@H](CO)[C@@H](O)[C@H](O)[C@H]2O)[C@@H]2C(CO)=CC[C@H]12 [Geniposide]
[1]; [3]
  Fr (relative bioavailability): 257.67%
[1]; [4]
  CL/F: 55.7 mL/min/kg
  Cmax: 1860 ± 109 ng/mL
  MRT inf: 5.99 ± 0.61 h
  MRT last: 4.68 ± 0.57 h
  Tmax: 0.58 ± 0.2 h
  half-life: 6.59 ± 2.46 h
[1]; [5]
  AUC0–t: 5000.36 ± 755.13∗∗ ug/L∗h
  AUC0–∞: 5223.83 ± 746.92∗∗ ug/L∗h
[2]; rat, in vivo, 60 g/kg, normal group, oral YCHT, read-out: Cmax
  Cmax: 751 ± 47.7 ng/mL
[2]; [6]
  CL/F: 147 mL/min/kg
[2]; [8]
  MRT last: 4.57 ± 0.41 h
[2]; [9]
  MRT inf: 4.8 ± 0.47 h
[2]; [10]
  Tmax: 0.33 ± 0.13 h
[2]; [11]
  half-life: 3.55 ± 0.38 h
[2]; [12]
  AUC0–t: 1940.63 ± 210.72 ug/L∗h
  AUC0–∞: 1958.65 ± 206.96 ug/L∗h
